In US6028182A, “Methylphosphonic acid esters, processes for their preparation, and their use” (Hoechst Aktiengesellschaft, priority 1993, dated 2000):
≈ marks a conversion by molar mass, not a printed value. Where two headings read alike, the source gives them in different places.

Columns and labels:
HIV-2 [1] = test: In-vitro anti HIV test, HIV-2, thymidine kinase-deficient T-lymphocyte strain CEM/TK^-; type: cell-based, HIV-2 in human T lymphocytes (CEM/TK^-); details: Human immunodeficiency virus 2, CEM-TK(-), read-out: Antiviral activity EC50 CEM/TK^- HIV-2
Experimental: (§1) In-vitro HIV tests were carried out with the dinucleoside α-hydroxymethylarylphosphonates 1-3. As a test system human T lymphocytes (CEM/O) were used. The compounds were additionally tested in a thymidine kinase-deficient T-lymphocyte strain (CEM/TK^-). The CEM/O cells were infected both with HIV-1 and with HIV-2. Before the tests, it was ensured that the compounds to be tested were free of free nucleoside (max. 0.5% HPLC) .

[2] = Toxicity (cytotoxic action) in human T lymphocytes; type: cell-based; details: cem t lymphocytes
Experimental: as §1

HIV-2 [3] = test: In-vitro anti HIV test, HIV-2, human T lymphocytes CEM/O; type: cell-based, HIV-2 in human T lymphocytes (CEM/O); details: Human immunodeficiency virus 2, T-lymphocyte, read-out: Antiviral activity EC50 CEM/O HIV-2
Experimental: as §1

HIV-1 = test: In-vitro anti HIV test, HIV-1, human T lymphocytes CEM/O; type: cell-based, HIV-1 in human T lymphocytes (CEM/O); details: Human immunodeficiency virus 1, T-lymphocyte, read-out: Antiviral activity EC50 CEM/O HIV-1
Experimental: as §1

SMILES | EC50 (HIV-2 [1]) [µg/mL] | CC50 ([2]; read-out: Toxicity CC50) [µg/mL] | EC50 (HIV-2 [3]; HIV-2, CEM/O cells) [µg/mL] | EC50 (HIV-1; HIV-1, CEM/O cells) [µg/mL] | CC50 [2] [µg/mL] | EC50 (HIV-2 [3]) [µg/mL] | EC50 (HIV-1) [µg/mL]
COc1ccc(C(O)P(=O)(OC[C@@H]2C=C[C@H](n3cc(C)c(=O)[nH]c3=O)O2)OC[C@@H]2C=C[C@H](n3cc(C)c(=O)[nH]c3=O)O2)cc1 (some centres unmarked) [Compound 2b, bis(5'-O-2',3'-dideoxy-2',3'-didehydrothymidine)hydroxy(4-methoxyphenyl)methylphosphonate] | > 100 | > 20 | 0.12 ± 0.06 (≈ 0.19 µM) | 0.1 ± 0.065 (≈ 0.159 µM) | – | – | –
Cc1cn([C@H]2C=C[C@@H](COP(=O)(OC[C@@H]3C=C[C@H](n4cc(C)c(=O)[nH]c4=O)O3)C(O)c3c(Cl)cccc3Cl)O2)c(=O)[nH]c1=O (some centres unmarked) [Compound 2f, bis(5'-O-2',3'-dideoxy-2',3'-didehydrothymidine)hydroxy(2,6-dichlorophenyl)methylphosphonate] | > 20 | > 100 | 0.12 ± 0.06 (≈ 0.179 µM) | 0.056 ± 0.034 (≈ 0.0837 µM) | – | – | –
Cc1cn([C@H]2CC[C@@H](COP(=O)(OC[C@@H]3CC[C@H](n4cc(C)c(=O)[nH]c4=O)O3)C(O)c3ccccc3)O2)c(=O)[nH]c1=O (some centres unmarked) [Compound 1d, bis(5'-O-2',3'-dideoxythymidine) hydroxy(phenyl)methylphosphonate] | > 100 | > 100 | 13.3 ± 2.9 (≈ 22 µM) | 2.93 ± 1.85 (≈ 4.85 µM) | – | – | –
Cc1cn([C@H]2C=C[C@@H](COP(=O)(OC[C@@H]3C=C[C@H](n4cc(C)c(=O)[nH]c4=O)O3)C(O)c3ccc([N+](=O)[O-])cc3[N+](=O)[O-])O2)c(=O)[nH]c1=O (some centres unmarked) [Compound 2j, bis(5'-O-2',3'-dideoxy-2',3'-didehydrothymidine)hydroxy(2,4-dinitrophenyl)methylphosphonate] | > 100 | – | 0.33 ± 0.24 (≈ 0.478 µM) | 0.16 (≈ 0.232 µM) | > 100 | – | –
Cc1cn([C@H]2C=C[C@@H](COP(=O)(OC[C@@H]3C=C[C@H](n4cc(C)c(=O)[nH]c4=O)O3)C(O)c3ccccc3)O2)c(=O)[nH]c1=O (some centres unmarked) [Compound 2d, bis(5'-O-2',3'-dideoxy-2',3'-didehydrothymidine)hydroxy(phenyl)methylphosphonate] | > 100 | > 100 | 0.19 ± 0.19 (≈ 0.316 µM) | 0.16 (≈ 0.266 µM) | – | – | –
Cc1cn([C@H]2C=C[C@@H](COP(=O)(OC[C@@H]3C=C[C@H](n4cc(C)c(=O)[nH]c4=O)O3)C(O)c3ccc([N+](=O)[O-])cc3)O2)c(=O)[nH]c1=O (some centres unmarked) [Compound 2h, bis(5'-O-2',3'-dideoxy-2',3'-didehydrothymidine)hydroxy(4-nitrophenyl)methylphosphonate] | > 100 | > 100 | 0.12 ± 0.06 (≈ 0.186 µM) | 0.066 ± 0.048 (≈ 0.102 µM) | – | – | –
Cc1cn([C@H]2CC[C@@H](COP(=O)(OC[C@@H]3CC[C@H](n4cc(C)c(=O)[nH]c4=O)O3)C(O)c3ccc([N+](=O)[O-])cc3[N+](=O)[O-])O2)c(=O)[nH]c1=O (some centres unmarked) [Compound 1j, bis(5'-O-2',3'-dideoxythymidine) hydroxy(2,4-dinitrophenyl)methylphosphonate] | > 100 | – | 3.5 ± 0.71 (≈ 5.04 µM) | 2 (≈ 2.88 µM) | > 100 | – | –
Cc1cn([C@H]2CC[C@@H](COP(=O)(OC[C@@H]3CC[C@H](n4cc(C)c(=O)[nH]c4=O)O3)C(O)c3ccc(N(C)C)cc3)O2)c(=O)[nH]c1=O (some centres unmarked) [Compound 1a, bis(5'-O-2',3'-dideoxythymidine) hydroxy(4-dimethylaminophenyl)methylphosphonate] | > 100 | > 100 | 7 ± 4.24 (≈ 10.8 µM) | 3.25 ± 1.06 (≈ 5.02 µM) | – | – | –
Cc1ccc(C(O)P(=O)(OC[C@@H]2CC[C@H](n3cc(C)c(=O)[nH]c3=O)O2)OC[C@@H]2CC[C@H](n3cc(C)c(=O)[nH]c3=O)O2)cc1 (some centres unmarked) [Compound 1c, bis(5'-O-2',3'-dideoxythymidine) hydroxy(4-methylphenyl)methylphosphonate] | > 100 | > 100 | 10 (≈ 16.2 µM) | 3.25 ± 1.06 (≈ 5.25 µM) | – | – | –
Cc1cn([C@H]2C=C[C@@H](COP(=O)(OC[C@@H]3C=C[C@H](n4cc(C)c(=O)[nH]c4=O)O3)C(O)c3ccc(Cl)cc3)O2)c(=O)[nH]c1=O (some centres unmarked) [Compound 2e, bis(5'-O-2',3'-dideoxy-2',3'-didehydrothymidine)hydroxy(4-chlorophenyl)methylphosphonate] | > 100 | > 100 | 0.12 ± 0.06 (≈ 0.189 µM) | 0.1 ± 0.05 (≈ 0.157 µM) | – | – | –
Cc1cn([C@H]2C=C[C@@H](COP(=O)(OC[C@@H]3C=C[C@H](n4cc(C)c(=O)[nH]c4=O)O3)C(O)c3ccc(C#N)cc3)O2)c(=O)[nH]c1=O (some centres unmarked) [Compound 2g, bis(5'-O-2',3'-dideoxy-2',3'-didehydrothymidine)hydroxy(4-cyanophenyl)methylphosphonate] | > 100 | > 100 | 0.33 ± 0.24 (≈ 0.528 µM) | 0.091 ± 0.065 (≈ 0.145 µM) | – | – | –
Cc1ccc(C(O)P(=O)(OC[C@@H]2C=C[C@H](n3cc(C)c(=O)[nH]c3=O)O2)OC[C@@H]2C=C[C@H](n3cc(C)c(=O)[nH]c3=O)O2)cc1 (some centres unmarked) [Compound 2c, bis(5'-O-2',3'-dideoxy-2',3'-didehydrothymidine)hydroxy(4-methylphenyl)methylphosphonate] | > 100 | > 20 | 0.33 ± 0.24 (≈ 0.537 µM) | 0.12 ± 0.064 (≈ 0.195 µM) | – | – | –
COc1ccc(C(O)P(=O)(OC[C@@H]2CC[C@H](n3cc(C)c(=O)[nH]c3=O)O2)OC[C@@H]2CC[C@H](n3cc(C)c(=O)[nH]c3=O)O2)cc1 (some centres unmarked) [Compound 1b, bis(5'-O-2',3'-dideoxythymidine) hydroxy(4-methoxyphenyl)methylphosphonate] | > 20 | > 20 | 0.55 ± 0.07 (≈ 0.867 µM) | 0.5 (≈ 0.788 µM) | – | – | –
Cc1cn([C@H]2CC[C@@H](COP(=O)(OC[C@@H]3CC[C@H](n4cc(C)c(=O)[nH]c4=O)O3)C(O)c3ccc(Cl)cc3)O2)c(=O)[nH]c1=O (some centres unmarked) [Compound 1e, bis(5'-O-2',3'-dideoxythymidine) hydroxy(4-chlorophenyl)methylphosphonate] | > 100 | > 100 | 4 (≈ 6.26 µM) | 4 (≈ 6.26 µM) | – | – | –
Cc1cn([C@H]2CC[C@@H](COP(=O)(OC[C@@H]3CC[C@H](n4cc(C)c(=O)[nH]c4=O)O3)C(O)c3c(Cl)cccc3Cl)O2)c(=O)[nH]c1=O (some centres unmarked) [Compound 1f, bis(5'-O-2',3'-dideoxythymidine) hydroxy(2,6-dichlorophenyl)methylphosphonate] | > 20 | > 20 | – | – | – | 2 (≈ 2.97 µM) | 1.4 ± 0.85 (≈ 2.08 µM)
Cc1cn([C@H]2CC[C@@H](COP(=O)(OC[C@@H]3CC[C@H](n4cc(C)c(=O)[nH]c4=O)O3)C(O)c3ccc(C#N)cc3)O2)c(=O)[nH]c1=O (some centres unmarked) [Compound 1g, bis(5'-O-2',3'-dideoxythymidine) hydroxy(4-cyanophenyl)methylphosphonate] | > 100 | > 100 | 7.7 ± 4.6 (≈ 12.2 µM) | 3.93 ± 3.1 (≈ 6.24 µM) | – | – | –
Cc1cn([C@H]2CC[C@@H](COP(=O)(OC[C@@H]3CC[C@H](n4cc(C)c(=O)[nH]c4=O)O3)C(O)c3ccc([N+](=O)[O-])cc3)O2)c(=O)[nH]c1=O (some centres unmarked) [Compound 1h, bis(5'-O-2',3'-dideoxythymidine) hydroxy(4-nitrophenyl)methylphosphonate] | > 100 | > 100 | 3 ± 1.41 (≈ 4.62 µM) | 2.25 ± 0.35 (≈ 3.46 µM) | – | – | –
